{"source": "patent US20200123208A1", "about": "“PEPTIDES AND NEMATICIDAL COMPOSITIONS” (priority 2017, published 2020)", "format_in_all_cases": "in vivo", "key": {"[1]": {"tested_on": "Meloidogyne incognita J2s", "test": "B. subtilis and C. reinhardtii plant protection assay, M. incognita", "details": "tomato", "procedure": "(§1) Tomato seeds were sterilised with 2.5% NaOCl for 15 minutes, washed 5 times in ddH2O and germinated on 0.5% Murashige and Skoog plates at 23° C. […] Invasion assays were performed by mixing 500 pre-treated M. incognita or G. pallida J2s with agar slurry and a single tomato seedling (2 days post germination) in a 6 well plate. Assays were left at 23° C. for 24 hours in the case of M. incognita and at 18° C. for 24 hours in the case of G. pallida under a 16 hour light and 8 hour darkness cycle. Seedlings were stained using acid fuschin [69] and the number of nematodes within the roots counted.\n(§2) B. subtilis were grown overnight in LB media containing ampicillin (100 μg/ml) at 37° C. with shaking, and harvested in the log phase of growth determined by measuring OD600nm. Five ml of culture at 0.5 OD was spun down and the pellet mixed with 3 ml of agar slurry and 500 J2s from either G. pallida or M. incognita. C. reinhardtii clones were grown at 23° C. with shaking, cultures in the log phase were measured at OD750 and 5 ml of culture at 0.5 OD was pelleted by centrifugation. C. reinhardtii pellets were mixed with 3 ml of agar slurry and 500 J2s from either G. pallida or M. incognita. Plant invasion assays were performed as described above.\nuNLP secretion inserts, and vector pChlamy_3 were digested using Kpnl/Xbal (New England Biolabs, USA), ligated using T4 ligase (New England Biolabs, USA), and cloned into Escherichia coli One Shot® TOP10 chemically competent cells (Life Technologies, USA) following manufacturer's instructions. Ampicillin (Sigma Aldrich, USA) was used to select E. coli containing the pChlamy_3 plasmid, which was subsequently extracted using the High Pure Plasmid Isolation Kit (Roche) and sequenced (Eurofins Genomics, UK) to identify correct clones. C. reinhardtii was transformed by electroporation following manufacturer's instructions (GeneArt® Chlamydomonas Engineering Kit, Life Technologies) and individual colonies grown on TAP-Agar-Hygromycin plates (10 μg/mL) (Sigma Aldrich, USA) at 23° C. Colonies were picked and grown at 23° C. in 100 ml TAP growth media (Invitrogen, USA) with constant orbital agitation. qRT-PCR was performed to identify clones with the highest level of uNLP expression, which were then selected for downstream assays (pChlamy universal FWD: […], nlp-15b REV: CTACTAGTCGAGGCCGGTA; Mi-nlp-9f REV: GAACGGGCGGATGAAGTAG).\nuNLP secretion inserts, and vector pBE-S were digested using Xbal/Mlul (New England Biolabs, USA), ligated using T4 ligase (New England Biolabs, USA), and cloned into E. coli One Shot® TOP10 chemically competent cells (Life Technologies, USA) following manufacturer's instructions. […]"}, "Globodera pallida J2s [2]": {"tested_on": "Globodera pallida J2s", "test": "B. subtilis and C. reinhardtii plant protection assay, G. pallida", "details": "tomato", "procedure": "as §1\nas §2, with “above. […]” for “above.”"}, "Globodera pallida J2s [3]": {"tested_on": "Globodera pallida J2s", "test": "Tomato invasion assay, G. pallida J2s", "details": "exogenous pre-treatment of J2s", "procedure": "Predicted uNLPs from both M. incognita and G. pallida were synthesised by EZBiolab and dissolved into pH adjusted ddH2O to make a 5 mM stock which was aliquoted and stored at −20° C. J2s of both M. incognita and G. pallida were incubated for 24 hours in 200 μl of each peptide in a 24 well plate (SPL Lifesciences, South Korea) at a defined concentration.\nas §1"}}, "data": [{"sequence": "SFDSFTGPGFTGLD [Mi-NLP-15b]", "values": [{"measurement": "M. incognita invasion relative to control", "setting": "[1]; B. subtilis cultures secreting the uNLP", "value": 26.63, "unit": "%+/−8.12"}, {"measurement": "M. incognita invasion relative to untransformed C. reinhardtii", "setting": "[1]; C. reinhardtii cultures secreting the uNLP", "value": 10.82, "unit": "%+/−6.574"}, {"measurement": "G. pallida invasion relative to control groups", "setting": "Globodera pallida J2s [2]; B. subtilis secreting the uNLP", "value": 51.98, "unit": "%+/−13.29"}, {"measurement": "G. pallida invasion relative to controls", "setting": "Globodera pallida J2s [2]; C. reinhardtii expressing the uNLP", "value": 30.95, "unit": "%+/−9.021"}, {"measurement": "effect of exogenous peptide exposure on G. pallida host invasion (in words)", "setting": "Globodera pallida J2s [3]", "value": "does not inhibit host invasion"}]}]}
